According to patent US8993606B2, “Oral formulations for treating metal overload” (FerroKin BioSciences, Inc., priority 2011, dated 2015):
Where two headings read alike, the source gives them in different places.

Assay: Example 9: single-dose study in healthy human subjects 30-75 mg/kg and 20 mg/kg x 2 (PK)
Assay type: in vivo
Conditions: for Vd/F / AUC(0-inf) / AUC(0-t) / Cmax / half-life / Tmax / CL renal: human; for Vd/F / AUC(0-inf) / AUC(0-t) / Cmax / half-life / Tmax: plasma; for Vd/F: read-out: VZ/F; for CL renal: urine and plasma
Experimental: Example 9 was a single-dose escalating study in healthy volunteers. The objectives of the study were to assess the safety, tolerability, pharmacokinetic, and pharmacodynamics of single ascending doses of Compound 1. The doses tested were 30, 40, 50, 60, and 75 mg/kg once daily and a regimen of 20 mg/kg twice a day, which extended the range of doses evaluated. This Example confirms the earlier results obtained with higher dosage, as described in Example 7.
This was a single-center, double-blind, placebo-controlled study of ascending single oral doses of Compound 1. Six cohorts of 8 subjects (30 and 50 mg/kg single doses) or 5 subjects (40, 60, and 75 mg/kg single doses and 20 mg/kg×2 doses at 12 hour intervals) were dosed sequentially with Compound 1. Within each cohort, 7 or 4 subjects received Compound 1 and 1 subject received placebo. Subjects in the 20 mg/kg×2 doses cohort received a dose the evening prior to the study day (Day −1), approximately 12 hours prior to dosing on Day 1. The dose administered on Day −1 followed a 2-hour fast and that on Day 1 a 10-hour fast.
A total of 36 subjects were enrolled and all subjects completed the study. The 30 subjects that received active drug comprised the pharmacokinetic (PK) analysis population.
[…] subjects receiving a single dose, blood samples for the measurement of the total (free and iron bound complex) plasma concentrations of Compound 1 were collected before and 0.25, 0.5, 0.75, 1, 1.25, 1.5, 2, 2.5, 4, 8, 12, 24, 48, 72, and 96 hours after dosing. Subjects receiving two doses of 20 mg/kg had blood collected prior and 0.5, 1, 1.5, 2, and 2.5 hours after the first dose. After the second dose in the morning of Day 1, the sampling schedule was identical to that used for subjects receiving a single dose.
In all cohorts, urine was collected in pooled intervals of 0-4, 4-8, 8-12 and 12-24 hours after the dose on Day 1 for the analysis of Compound 1 concentrations.

[1] = 20 mg/kg × 2 at 12-hour interval
[2] = oral, 20 mg/kg × 2, for the total dose of 40 mg/kg

## COCCOCCOCCOc1cccc(C2=N[C@@](C)(C(=O)O)CS2)c1O [Compound 1, (S)-4,5-Dihydro-2-[2-hydroxy-3-(3,6,9-trioxadecyloxy)phenyl]-4-methyl-4-thiazolecarboxylate magnesium hydroxide]
20 mg/kg × 2, calculated with total dose of 40 mg/kg
  CL/F: 235 ± 96.2 mL/min
[1]
  Ue(0-24): 805 ± 208 mg
  λZ: 0.0744 ± 0.0158 h⁻¹
30 and 40 mg/kg
  dose recovered in the urine over 24-hour post-dose period: approximately 55%
oral, 20 mg/kg × 2, calculated with total dose of 40 mg/kg
  Vd/F: 208 ± 136 L
[2]
  AUC(0-inf): 231 µg·h/mL
  AUC(0-t): 221 µg·h/mL
oral, 20 mg/kg × 2 at 12-hour interval, for the second dose
  Cmax: 52.9 µg/mL
oral, 20 mg/kg × 2 at 12-hour interval, read-out: t1/2 (converted)
  half-life: 9.64 ± 2.28 h
oral, 20 mg/kg × 2 at 12-hour interval, second dose, median, read-out: tmax
  Tmax: 0.75 h
oral, across cohorts, read-out: median values for Tmax, range
  Tmax: 1 to 1.5 h
oral, across cohorts, read-out: t1/2, range
  half-life: 8.36 to 18.6 h
Single oral dose 30 mg/kg
  AUC(0-inf): 161 µg·h/mL
  AUC(0-t): 155 µg·h/mL
  Cmax: 68.2 µg/mL
  Vd/F: 248 ± 58.8 L
  CL/F: 239 ± 17.2 mL/min
  Fe(0-24): 54.8 ± 8.99 % Dose
  Ue(0-24): 1,260 ± 255.3 mg
  λZ: 0.0615 ± 0.0200 h⁻¹
Single oral dose 30 mg/kg, median, read-out: tmax
  Tmax: 1 h
Single oral dose 30 mg/kg, read-out: t1/2 (converted)
  half-life: 12.1 ± 3.05 h
Single oral dose 40 mg/kg
  AUC(0-inf): 195 µg·h/mL
  AUC(0-t): 205 µg·h/mL
  Cmax: 87.9 µg/mL
  Vd/F: 542 ± 657 L
  CL/F: 290 ± 73.8 mL/min
  Fe(0-24): 57.1 ± 8.60 % Dose
  Ue(0-24): 1,820 ± 397 mg
  λZ: 0.0677 ± 0.0439 h⁻¹
Single oral dose 40 mg/kg, median, read-out: tmax
  Tmax: 1.38 h
Single oral dose 40 mg/kg, read-out: t1/2 (converted)
  half-life: 18.6 ± 19.2 h
Single oral dose 50 mg/kg
  AUC(0-inf): 236 µg·h/mL
  AUC(0-t): 254 µg·h/mL
  Cmax: 91.7 µg/mL
  Vd/F: 338 ± 272 L
  CL/F: 286 ± 56.1 mL/min
  Fe(0-24): 40.2 ± 8.69 % Dose
  Ue(0-24): 1,500 ± 434 mg
  λZ: 0.0664 ± 0.0292 h⁻¹
Single oral dose 50 mg/kg, median, read-out: tmax
  Tmax: 1.5 h
Single oral dose 50 mg/kg, read-out: t1/2 (converted)
  half-life: 12.8 ± 7.66 h
Single oral dose 60 mg/kg
  AUC(0-inf): 205 µg·h/mL
  AUC(0-t): 204 µg·h/mL
  Cmax: 82.3 µg/mL
  Vd/F: 454 ± 363 L
  CL/F: 435 ± 117.0 mL/min
  Fe(0-24): 33.7 ± 8.37 % Dose
  Ue(0-24): 1,713 ± 480 mg
  λZ: 0.0786 ± 0.0393 h⁻¹
Single oral dose 60 mg/kg, median, read-out: tmax
  Tmax: 1.38 h
Single oral dose 60 mg/kg, read-out: t1/2 (converted)
  half-life: 11 ± 5.99 h
Single oral dose 75 mg/kg
  AUC(0-inf): 247 µg·h/mL
  AUC(0-t): 244 µg·h/mL
  Cmax: 84.6 µg/mL
  Vd/F: 342 ± 83.6 L
  CL/F: 540 ± 237 mL/min
  Fe(0-24): 35.0 ± 15.1 % Dose
  Ue(0-24): 2,199 ± 1,189 mg
  λZ: 0.0943 ± 0.0383 h⁻¹
Single oral dose 75 mg/kg, median, read-out: tmax
  Tmax: 1.38 h
Single oral dose 75 mg/kg, read-out: t1/2 (converted)
  half-life: 8.36 ± 3.84 h
oral, 20 mg/kg × 2 at 12-hour interval, read-out: CLr
  CL renal: 131 ± 18.7 mL/min
oral, not dependent upon dose, read-out: Renal clearance, average
  CL renal: ~140 mL/min
Single oral dose 30 mg/kg, read-out: CLr
  CL renal: 139 ± 13.2 mL/min
Single oral dose 40 mg/kg, read-out: CLr
  CL renal: 152 ± 18 mL/min
Single oral dose 50 mg/kg, read-out: CLr
  CL renal: 103 ± 16.2 mL/min
Single oral dose 60 mg/kg, read-out: CLr
  CL renal: 147 ± 28.2 mL/min
Single oral dose 75 mg/kg, read-out: CLr
  CL renal: 165 ± 42.7 mL/min
The 3 higher doses (50, 60, 75 mg/kg)
  dose recovered in the urine over 24-hour post-dose period: approximately 38%
